Results from ChEMBL document CHEMBL4422633, “Antioxidant-Inspired Drug Discovery: Antitumor Metabolite Is Formed in Situ from a Hydroxycinnamic Acid Derivative upon Free-Radical Scavenging” (J Med Chem, 2019).
Activity calls are given as the source filed them. No cut-off for these calls is given here.

How the values were obtained:
Liver = experiment: Antioxidant activity in rat liver microsomes assessed as reduction in lipid peroxidation; type: functional, Microsome
[1] = Antioxidant activity assessed as hydroxyl radical scavenging activity by measuring inhibition of damage to 2-deoxy-D-ribose after 3 mins by TBA-based Fenton reaction assay; type: functional
[2] = Cytotoxicity against mouse L5178 cells assessed as reduction in cell viability after 72 hrs by MTT assay; type: functional, cell-based; conditions: L5178, 72 h
NCI-H661 = experiment: Cytotoxicity against human NCI-H661 cells assessed as reduction in cell viability after 72 hrs by MTT assay; type: functional, cell-based; conditions: NCI-H661, 72 h
MCF7 [3] = experiment: Cytotoxicity against human MCF7 cells assessed as combination index measured at ED50 at H2O2/pcm ratio of 2.5:1 in presence of H2O2 after 48 hrs by MTT assay; type: functional
MCF7 [4] = experiment: Cytotoxicity against human MCF7 cells assessed as combination index measured at ED75 at H2O2/pcm ratio of 2.5:1 in presence of H2O2 after 48 hrs by MTT assay; type: functional
MCF7 [5] = experiment: Cytotoxicity against human MCF7 cells assessed as combination index measured at ED90 at H2O2/pcm ratio of 1.25:1 in presence of H2O2 after 48 hrs by MTT assay; type: functional
MCF7 [6] = experiment: Cytotoxicity against human MCF7 cells assessed as combination index measured at ED90 at H2O2/pcm ratio of 0.625:1 in presence of H2O2 after 48 hrs by MTT assay; type: functional
[7] = Stability in MeOH and H2O2 by HPLC-PDA assay; type: physicochemical
MCF7 [8] = experiment: Cytotoxicity against human MCF7 cells assessed as combination index measured at ED75 at H2O2/pcm ratio of 1.25:1 in presence of H2O2 after 48 hrs by MTT assay; type: functional
[9] = Drug metabolism assessed as methyl 3-(1-hydroxy-4-oxocyclohexa-2,5-dienyl)acrylate formation by reverse phase-HPLC and HPLC-MS analysis based Fenton reaction assay
HaCaT = experiment: Cytotoxicity against human HaCaT cells assessed as reduction in cell viability after 72 hrs by MTT assay; type: cell-based
SiHa = experiment: Cytotoxicity against human SiHa cells assessed as reduction in cell viability after 72 hrs by MTT assay; type: functional, cell-based
[10] = target: Serine/threonine-protein kinase Chk2 (Homo sapiens) (UniProt O96017); experiment: Inhibition of CHK2 phosphorylation at T68 in human MCF7 cells at 10 uM pretreated for 30 mins followed by 10 J/m'2 irradiation and measured after 1 hr by Western blot analysis; type: cell-based
NCI-H460 = experiment: Cytotoxicity against human NCI-H460 cells assessed as reduction in cell viability after 72 hrs by MTT assay; type: functional, cell-based; conditions: NCI-H460, 72 h
[11] = Cytotoxicity against mouse L5178B1 cells transfected with pHa MDR1/A retrovirus assessed as reduction in cell viability after 72 hrs by MTT assay; type: functional, cell-based; conditions: MDR1, 72 h
MCF7 [12] = experiment: Cytotoxicity against human MCF7 cells assessed as combination index measured at ED50 at H2O2/pcm ratio of 1.25:1 in presence of H2O2 after 48 hrs by MTT assay; type: functional
A549 = experiment: Cytotoxicity against human A549 cells assessed as reduction in cell viability after 72 hrs by MTT assay; type: functional, cell-based; conditions: A549, 72 h
MCF7 [13] = experiment: Cytotoxicity against human MCF7 cells assessed as combination index measured at ED75 at H2O2/pcm ratio of 0.625:1 in presence of H2O2 after 48 hrs by MTT assay; type: functional
HeLa = experiment: Cytotoxicity against human HeLa cells assessed as reduction in cell viability after 72 hrs by MTT assay; type: functional, cell-based
[14] = Cytotoxicity against human NCI-H460/R cells transfected with MDR assessed as reduction in cell viability after 72 hrs by MTT assay; type: functional, cell-based; conditions: NCI-H460, 72 h
MCF7 [15] = experiment: Cytotoxicity against human MCF7 cells assessed as combination index measured at ED50 at H2O2/pcm ratio of 0.625:1 in presence of H2O2 after 48 hrs by MTT assay; type: functional
MCF7 [16] = experiment: Cytotoxicity against human MCF7 cells assessed as combination index measured at ED90 at H2O2/pcm ratio of 2.5:1 in presence of H2O2 after 48 hrs by MTT assay; type: functional
[17] = target: T1, Serine/threonine-protein kinase Chk1 (Homo sapiens) (UniProt O14757); experiment: Inhibition of CHK1 phosphorylation at S345 in human MCF7 cells at 10 uM pretreated for 30 mins followed by 10 J/m'2 irradiation and measured after 1 hr by Western blot analysis; type: cell-based
T1 sequence (whole entry): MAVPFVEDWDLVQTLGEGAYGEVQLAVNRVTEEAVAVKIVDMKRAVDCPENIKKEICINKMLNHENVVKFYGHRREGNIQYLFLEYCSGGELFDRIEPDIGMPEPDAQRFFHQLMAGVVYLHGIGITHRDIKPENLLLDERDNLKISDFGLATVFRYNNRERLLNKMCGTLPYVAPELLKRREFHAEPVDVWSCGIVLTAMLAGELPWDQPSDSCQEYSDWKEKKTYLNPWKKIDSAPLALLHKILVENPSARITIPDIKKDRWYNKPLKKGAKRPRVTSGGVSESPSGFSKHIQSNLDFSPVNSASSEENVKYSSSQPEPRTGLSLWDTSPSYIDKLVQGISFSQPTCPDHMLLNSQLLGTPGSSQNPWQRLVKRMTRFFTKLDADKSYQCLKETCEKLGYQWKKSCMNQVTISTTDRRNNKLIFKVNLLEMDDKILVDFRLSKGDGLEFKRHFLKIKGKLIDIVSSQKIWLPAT

MCF7 [18] = experiment: Cytotoxicity against human MCF7 cells assessed as reduction in cell viability after 72 hrs by MTT assay; type: functional, cell-based; conditions: MCF7, 72 h

Serine/threonine-protein kinase Chk2 (Homo sapiens), sequence (O96017 whole entry): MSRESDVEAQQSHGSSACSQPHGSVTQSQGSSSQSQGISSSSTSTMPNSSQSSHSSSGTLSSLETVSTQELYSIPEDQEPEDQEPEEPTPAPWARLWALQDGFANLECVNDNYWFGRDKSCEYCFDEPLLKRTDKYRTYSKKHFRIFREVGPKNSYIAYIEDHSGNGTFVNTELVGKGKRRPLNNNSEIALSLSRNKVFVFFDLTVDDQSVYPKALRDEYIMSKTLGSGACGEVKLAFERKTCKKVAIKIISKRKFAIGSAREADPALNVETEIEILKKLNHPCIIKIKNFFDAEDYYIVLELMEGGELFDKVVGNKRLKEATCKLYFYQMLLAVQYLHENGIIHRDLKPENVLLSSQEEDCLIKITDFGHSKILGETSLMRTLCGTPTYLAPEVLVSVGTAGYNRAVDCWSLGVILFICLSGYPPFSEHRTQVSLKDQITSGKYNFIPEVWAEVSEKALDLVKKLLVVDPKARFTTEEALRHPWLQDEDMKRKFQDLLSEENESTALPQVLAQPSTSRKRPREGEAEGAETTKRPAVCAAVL

Work on `COC(=O)/C=C/c1ccc(O)cc1` [METHYL P-HYDROXYCINNAMATE] yielded an IC50 (Liver) of 0.4 µM, an IC50 [1] of 345 µM and an IC50 [2] of 126 µM. The IC50 (NCI-H661) was 289 µM, the CI (MCF7 [3]) was 0.79 and the CI (MCF7 [4]) was 0.6. The CI (MCF7 [5]) was 0.39, the CI (MCF7 [6]) was 0.44 and the Stability [7] was “<= 92 hr”. The CI (MCF7 [8]) was 0.6, the Drug metabolism [9] was “Metabolite detected” and the IC50 (HaCaT) was 311 µM. For the same compound, the IC50 (SiHa) was greater than 150 µM, the inhibition [10] was “inactive” and the IC50 (NCI-H460) was 120 µM. The IC50 [11] was greater than 150 µM, the CI (MCF7 [12]) was 0.93 and the IC50 (A549) was 323 µM. The CI (MCF7 [13]) was 0.68, the IC50 (HeLa) was greater than 150 µM and the IC50 [14] was 1040 µM. The CI (MCF7 [15]) was 1.06, the CI (MCF7 [16]) was 0.45 and the inhibition [17] was “inactive”. The IC50 (MCF7 [18]) was greater than 400 µM.
